Test [1] has as its target T1, KRAS (WT) (Homo sapiens, UniProt P01116).
T1 construct: Biotinylated KRAS protein amino acids 1-169 (produced at Erasca); made in house
The test can be described thus: In-vitro RAS-RAF binding assay (RRB), HTRF/FRET. The class given is biochemical. The note with it: read-out: Inhibition of RAS-RAF Binding (in-vitro) KRAS (WT) IC50. Put shortly:
(§1)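 Biotinylated KRAS 1-169 (streptavidin-terbium donor, 30 nM) and GST-cRAF RBD (anti-GST d2 acceptor, 30 nM) in HEPES pH 7.5, NaCl, MgCl2, DTT buffer. After compound incubation, SOS1 catalytic domain plus GTPgS drive 60 min nucleotide exchange. HTRF FRET read at equilibrium, in duplicate.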
A general note: TR-FRET usually uses a lanthanide donor and a delayed reading to cut background.

In test [2] the target is T2, KRas G12D fused to HiBiT peptide (Homo sapiens, UniProt P01116, G12D).
T2 construct: endogenous in cells; host or cells: AsPC-1 HiBiT knock-in single clone (Cas9 RNP + ssODN)
T2 sequence (P01116 1-188 isoform P01116-2 G12D): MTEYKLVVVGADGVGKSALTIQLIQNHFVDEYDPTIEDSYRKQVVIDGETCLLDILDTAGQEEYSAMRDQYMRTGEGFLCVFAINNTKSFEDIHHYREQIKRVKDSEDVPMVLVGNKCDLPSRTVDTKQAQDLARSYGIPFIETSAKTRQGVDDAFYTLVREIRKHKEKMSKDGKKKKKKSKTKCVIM
The test can be described thus: ASPC-1 HiBit assay to determine G12D degradation. It counts as cell-based. The note with it: AsPC-1 HiBiT cells, 24-hour incubation; read-out: ASPC-1 HiBit DC50 (C). As for the experimental part:
Compounds presented herein induce degradation of the KRas G12D (KRasG12D) upon treatment of engineered cancer cell line.
The degradation of the KRasG12D in cellular environment was measured using engineered homozygous KRasG12D AsPC-1 cell line in which KRas G12D was fused to luminescent HiBiT peptide at the N-terminal. The small (1.3 kDa) HiBiT peptide complements with high affinity to a larger (18 kDa) subunit evolved from NanoLuc (termed LgBiT). The resulting complex (i.e., reconstituted luciferase enzyme) generates bright luminescence that translates to high sensitivity (1 amol), broad dynamic range (four orders of magnitude), and rapid kinetics for real time quantitation.
To generate HiBit KRasG12D knock-in cell line, sgRNA (SEQ. ID NO: 1) and ssODN (SEQ. ID NO: 2) were designed and synthesized at GenScript.
RNP complex was generated by mixing of 100 pmol of Cas9 protein to PCR tubes containing 300 pmol sgRNA incubating the resultant complex at room temperature for 20 min. […] ssODN was added to RNP complex slowly and RNP-ssODN complex was incubated at room temperature for 10 min. RNP-ssODN complex was mixed with […] of AsPC-1 cells (1×10^6 cells total) and electroporated using Nucleofactor (Program CM-150). Cells were then incubated at ambient temperature for 5 min and transferred to a six-well plate containing 2 ml growth medium.
To select pools with the highest luminescence signal, 10^4 cells of parental AsPC-1 and transfected pools were plated in solid white 384-well tissue culture plates. 24 hours after seeding, HiBiT was detected using the Nano-Glo HiBiT Lytic Detection System (Promega) following manufacturer's instructions. Briefly, […] of Nano-Glo HiBiT Lytic Detection Reagent was added directly to the cells and mixed by inversion before recording luminescence on an Envision (Perkin-Elmer) with 0.5 s integration time.
Single clones were isolated from stable pool by limited dilution method and presence of HiBiT knock-in was verified by TA cloning and subsequent sequencing. Additionally, western blotting analysis was conducted to confirm selection of single clones with high luminescence signal.
For DC50S measurements, AsPC-1 HiBiT single clone cells were grown in RPMI 1640 medium (Invitrogen 22400-089) supplemented with 10% fetal bovine serum. Cells were seeded in 384-well tissue culture plates at a density of 7,000 cells/well and allowed to attach for 24 hours.
Test compounds were distributed directly into assay plate with the adjustment for DMSO concentration using Tecan HP D300e. For most of the experiments, the final concentration of compounds starts from 10 μM, 3-fold dilution dose response and 10 doses. […] DMSO final concentration is 1%. Each concentration of exemplary compound was tested as singleton. The negative control wells were cells with DMSO only, and the positive control wells were cells with […] inhibitor.
Following 24-hour incubation with the compounds plate and Nano-Glo® HiBiT Lytic reagents were equilibrated to room temperature. 20 μL of HiBiT Lytic reagent were added to each well. The assay plate was incubated on digital microplate shaker (350 rpm) for 20 min followed by centrifugation at 500 g for 1 min. Luminescence was recorded using Envision (Perkin-Elmer) using aperture 384-L1 with 0.1 s integration time.
HiBiT signal are used to calculate the % degradation at given compound concentration using the following formula:
% Degradation=(1−(Sample HiBiT signal−Ave Min signal)/(Ave Max signal−Ave Min signal))*100%
For DC50 calculation, the data with the hook effect were removed first and DC50S was reported using a 4-parameter fit of dose response curve using GraphPad in those cases where maximum % degradation was >50% and Minimal % degradation was <50%. The decrease in DC50 reflects that the exemplary compound led to a higher level of degradation of KRasG12D than another exemplary compound at specific timepoint of treatment of cancer cell line. […]
On the technique in general: The HiBiT peptide binds its large partner to form an active luciferase.

In test [3] the target is KRAS G12D (Homo sapiens, UniProt P01116, G12D). The test can be described thus: In-vitro RAS-RAF binding assay (RRB), HTRF/FRET. It counts as biochemical. On the set-up: Biotinylated KRAS protein amino acids 1-169 (produced at Erasca); made in house. The note with it: read-out: Inhibition of RAS-RAF Binding (in-vitro) KRAS (G12D) IC50. Put shortly:
as §1

The mark [4] stands for this setting: Table 2, average of multiple runs of each compound.

Like-named read-outs stand apart in the source and are kept apart here.

Chain of KRAS G12D (P01116 1-169 isoform P01116-2 G12D): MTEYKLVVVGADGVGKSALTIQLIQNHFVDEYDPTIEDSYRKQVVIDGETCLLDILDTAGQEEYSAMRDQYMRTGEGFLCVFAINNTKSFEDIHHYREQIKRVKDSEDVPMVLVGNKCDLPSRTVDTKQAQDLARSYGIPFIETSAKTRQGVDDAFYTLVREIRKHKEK
T1 sequence (P01116 1-169 isoform P01116-2): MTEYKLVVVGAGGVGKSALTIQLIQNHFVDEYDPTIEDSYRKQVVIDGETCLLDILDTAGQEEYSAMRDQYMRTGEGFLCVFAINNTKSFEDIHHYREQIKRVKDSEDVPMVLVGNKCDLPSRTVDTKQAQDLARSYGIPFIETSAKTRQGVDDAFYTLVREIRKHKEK

For orientation: IC50 means the concentration that inhibits the measured activity by half. As a reminder, the DC50 is the midpoint of the concentration-degradation curve. On to `CC(C)[C@@H](C(=O)N1C[C@H](O)C[C@H]1C(=O)N[C@@H](C)c1ccc(-c2c(F)cc(F)cc2F)cc1)c1cc(OCC2CCN(CCOc3nc(N4CC5CCC(C4)N5)c4cc(C(F)(F)F)c(-c5ccc(F)c6sc(N)c(C#N)c56)c(F)c4n3)CC2)no1` [Example 78, (2S,4R)-1-((2R)-2-(3-((1-(2-((7-(2-amino-3-cyano-7-fluorobenzo[b]thiophen-4-yl)-4-(3,8-diazabicyclo[3.2.1]octan-3-yl)-8-fluoro-6-(trifluoromethyl)quinazolin-2-yl)oxy)ethyl)piperidin-4-yl)methoxy)isoxazol-5-yl)-3-methylbutanoyl)-4-hydroxy-N-((S)-1-(2′,4′,6′-trifluoro-[1,1′-biphenyl]-4-yl)ethyl)pyrrolidine-2-carboxamide], for which the IC50 in test [1] (setting [4]) worked out at 1.67 µM; in test [3] (setting [4]), 0.0255 µM. Besides, the DC50 in test [2] was 0.294 µM.
The matching figures for `C[C@H](NC(=O)[C@@H]1C[C@@H](O)CN1C(=O)[C@@H](NC(=O)CCOCCCN1CCC[C@H]1COc1nc(N2CC3CCC(C2)N3)c2cc(Cl)c(-c3ccc(F)c4sc(N)c(C#N)c34)c(F)c2n1)C(C)(C)C)c1ccc(-c2c(F)cc(F)cc2F)cc1` (single isomer, unassigned) [Example 97]: 0.03 µM, 0.0086 µM and 0.135 µM.
As for `C[C@H](NC(=O)[C@@H]1C[C@@H](O)CN1C(=O)[C@@H](NC(=O)CCOCCCN1CCCC1COc1nc(N2CC3CCC(C2)N3)c2cc(Cl)c(-c3ccc(F)c4sc(N)c(C#N)c34)c(F)c2n1)C(C)(C)C)c1ccc(-c2c(F)cccc2F)cc1` (stereo partly drawn) [Example 19, (2S,4R)-1-((2S)-2-(3-(3-((2S)-2-((((7R)-7-(2-amino-3-cyano-7-fluorobenzo[b]thiophen-4-yl)-4-(3,8-diazabicyclo[3.2.1]octan-3-yl)-6-chloro-8-fluoroquinazolin-2-yl)oxy)methyl)pyrrolidin-1-yl)propoxy)propanamido)-3,3-dimethylbutanoyl)-N—((S)-1-(2′,6′-difluoro-[1,1′-biphenyl]-4-yl)ethyl)-4-hydroxypyrrolidine-2-carboxamide], the half-inhibitory concentration (IC50) worked out at 0.0777 µM in test [1] (setting [4]) and 0.00767 µM in test [3] (setting [4]). For the same compound, the DC50 in test [2] turned out to be 0.0632 µM.
On the same counts, the results for `CC(C)[C@@H](C(=O)N1C[C@H](O)C[C@H]1C(=O)N[C@@H](C)c1ccc(-c2c(F)cccc2F)cc1)c1cc(OCC2CCN(CCOc3nc(N4CC5CCC(C4)N5)c4cc(Cl)c(-c5ccc(F)c6sc(N)c(C#N)c56)c(F)c4n3)CC2)no1` [Example 17, (2S,4R)-1-((2R)-2-(3-((1-(2-((7-(2-amino-3-cyano-7-fluorobenzo[b]thiophen-4-yl)-4-(3,8-diazabicyclo[3.2.1]octan-3-yl)-6-chloro-8-fluoroquinazolin-2-yl)oxy)ethyl)piperidin-4-yl)methoxy)isoxazol-5-yl)-3-methylbutanoyl)-N—((S)-1-(2′,6′-difluoro-[1,1′-biphenyl]-4-yl)ethyl)-4-hydroxypyrrolidine-2-carboxamide] are 2.83 µM, 0.0156 µM and 0.244 µM.
For the compound `C[C@H](NC(=O)[C@@H]1C[C@@H](O)CN1C(=O)[C@@H](NC(=O)CCOCCCN1CCC[C@H]1COc1nc(N2CC3CCC(C2)N3)c2cc(C(F)(F)F)c(-c3ccc(F)c4sc(N)c(C#N)c34)c(F)c2n1)C(C)(C)C)c1ccc(-c2c(F)ccc(F)c2F)cc1` [Example 93, (2S,4R)-1-((2S)-2-(3-(3-((2S)-2-((((7S)-7-(2-amino-3-cyano-7-fluorobenzo [b]thiophen-4-yl)-4-(3,8-diazabicyclo [3.2.1]octan-3-yl)-8-fluoro-6-(trifluoromethyl)quinazolin-2-yl)oxy)methyl)pyrrolidin-1-yl)propoxy)propanamido)-3,3-dimethylbutanoyl)-4-hydroxy-N—((S)-1-(2′,3′,6′-trifluoro-[1,1′-biphenyl]-4-yl)ethyl)pyrrolidine-2-carboxamide], the IC50 in test [1] (setting [4]) was 0.054 µM; in test [3] (setting [4]), 0.0091 µM. In addition, in test [2], the DC50 amounted to 0.034 µM.
With `C#Cc1c(F)ccc2cc(O)cc(-c3ncc4c(N5CC6CCC(C5)N6)nc(OC[C@@H]5CCCN5CCCOCCC(=O)N[C@H](C(=O)N5C[C@H](O)C[C@H]5C(=O)N[C@@H](C)c5ccc(-c6c(F)cccc6F)cc5)C(C)(C)C)nc4c3F)c12` [Example 14, (2S,4R)-1-[(2S)-2-[3-[3-[(2S)-2-[[4-(3,8-diazabicyclo[3.2.1]octan-3-yl)-7-(8-ethynyl-7-fluoro-3-hydroxy-1-naphthyl)-8-fluoro-pyrido[4,3-d]pyrimidin-2-yl]oxymethyl]pyrrolidin-1-yl]propoxy]propanoylamino]-3,3-dimethyl-butanoyl]-N-[(1S)-1-[4-(2,6-difluorophenyl)phenyl]ethyl]-4-hydroxy-pyrrolidine-2-carboxamide], the IC50 in test [1] (Table 1) was found to be 0.0419 µM; in test [1] (setting [4]), 0.0419 µM; in test [3] (Table 1) it was 0.0094 µM; in test [3] (setting [4]) it was 0.0094 µM. Also, the DC50 in test [2] was 0.331 µM.
In the case of `CC(C)[C@@H](C(=O)N1C[C@H](O)C[C@H]1C(=O)N[C@@H](C)c1ccc(-c2c(F)cccc2F)cc1)c1cc(N2CC3(CCN(CCOc4nc(N5CC6CCC(C5)N6)c5cc(C(F)(F)F)c(-c6ccc(F)c7sc(N)c(C#N)c67)c(F)c5n4)CC3)C2)no1` [Example 77, (2S,4R)-1-((2R)-2-(3-(7-(2-((7-(2-amino-3-cyano-7-fluorobenzo[b]thiophen-4-yl)-4-(3,8-diazabicyclo[3.2.1]octan-3-yl)-8-fluoro-6-(trifluoromethyl)quinazolin-2-yl)oxy)ethyl)-2,7-diazaspiro[3.5]nonan-2-yl)isoxazol-5-yl)-3-methylbutanoyl)-N-((S)-1-(2′,6′-difluoro-[1,1′-biphenyl]-4-yl)ethyl)-4-hydroxypyrrolidine-2-carboxamide], the IC50 in test [1] (setting [4]) was determined as 1.1 µM; in test [3] (setting [4]), 0.0176 µM. Besides, the DC50 in test [2] was 0.33 µM.
On the same counts, the results for `CC(C)[C@@H](C(=O)N1C[C@H](O)C[C@H]1C(=O)N[C@@H](C)c1ccc(-c2c(F)cc(F)cc2F)cc1)c1cc(OCC2(C)CCN(CCOc3nc(N4CC5CCC(C4)N5)c4cc(C(F)(F)F)c(-c5ccc(F)c6sc(N)c(C#N)c56)c(F)c4n3)CC2)no1` [Example 76, (2S,4R)-1-((2R)-2-(3-((1-(2-((7-(2-amino-3-cyano-7-fluorobenzo[b]thiophen-4-yl)-4-(3,8-diazabicyclo[3.2.1]octan-3-yl)-8-fluoro-6-(trifluoromethyl)quinazolin-2-yl)oxy)ethyl)-4-methylpiperidin-4-yl)methoxy)isoxazol-5-yl)-3-methylbutanoyl)-4-hydroxy-N-((S)-1-(2′,4′,6′-trifluoro-[1,1′-biphenyl]-4-yl)ethyl)pyrrolidine-2-carboxamide] are 1.9 µM, 0.0219 µM and 0.259 µM.

For the origin of these results see patent US20240293558A1, “KRAS INHIBITOR CONJUGATES” (Erasca, Inc., priority 2021, published 2024).
